In paper PMC9124818 (Pharmacology Research & Perspectives, 2022):
pIC50: −log10 of the molar value. Where two headings read alike, the source gives them in different places.

Key:
CYP1A2 mRNA = assay: CYP450 induction in cultured human hepatocytes, mRNA by qRT-PCR; assay type: cell-based; settings: for Fold‐change method: Fold change: highest dose tested (40 µM fenfluramine, 50 µM norfenfluramine); for Fold‐change method: % of control: percent of positive control induction of mRNA
Description: Each PCR was performed in triplicate.

BCRP = target: T1, BCRP (Homo sapiens, UniProt Q9UNQ0); assay: Transporter inhibition, bidirectional permeability of prazosin in MDCKII-BCRP cells; assay type: in vitro ADME
T1 construct: host or cells: MDCKII
T1 sequence (Q9UNQ0 1-655): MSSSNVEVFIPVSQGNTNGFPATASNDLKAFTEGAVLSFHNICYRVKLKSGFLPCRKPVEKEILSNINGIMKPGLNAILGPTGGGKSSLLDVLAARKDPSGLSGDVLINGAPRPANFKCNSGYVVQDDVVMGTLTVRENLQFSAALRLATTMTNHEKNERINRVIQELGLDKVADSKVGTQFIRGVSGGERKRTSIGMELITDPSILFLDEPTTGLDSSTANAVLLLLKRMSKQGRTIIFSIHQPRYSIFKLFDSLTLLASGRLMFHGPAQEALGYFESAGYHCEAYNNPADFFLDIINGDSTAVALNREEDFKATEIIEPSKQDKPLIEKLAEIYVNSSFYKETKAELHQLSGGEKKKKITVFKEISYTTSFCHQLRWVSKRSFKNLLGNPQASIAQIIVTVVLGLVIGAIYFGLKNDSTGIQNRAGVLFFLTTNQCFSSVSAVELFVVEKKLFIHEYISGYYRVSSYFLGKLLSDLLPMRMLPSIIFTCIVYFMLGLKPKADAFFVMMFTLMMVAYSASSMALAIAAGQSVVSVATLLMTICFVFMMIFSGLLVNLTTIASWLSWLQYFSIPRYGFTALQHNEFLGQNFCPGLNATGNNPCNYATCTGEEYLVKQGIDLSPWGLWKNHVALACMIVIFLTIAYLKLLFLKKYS
Description: (§1) The test compound (FFA or nFFA) or the positive control substrate ([…], respectively) was added to the donor chamber. […] Cells were then washed, lysed with scintillation cocktail, and analyzed for the probe substrate with a MicroBeta scintillation counter (PerkinElmer, Hopkinton, MA). Transcellular transporter assay conditions are described in Supplemental Table 1. Calculation of IC50 values was based on bidirectional permeability of probe substrate with and without the inhibitor in MDCKII cells expressing BCRP and in Caco‐2 cells expressing P‐gp, and transporter‐dependent uptake of probe substrate in HEK293 cells expressing all other transporters (Supplemental Table 1).
The net flux for human epithelial colorectal adenocarcinoma cells (Caco-2; P-gp) and MDCKII-BCRP inhibition determination was calculated according to the equation: […]

OATP1B1 = target: T2, OATP1B1 (Homo sapiens, UniProt Q9Y6L6); assay: Transporter inhibition, uptake of [3H]-estradiol-17β-glucuronide in HEK293 cells; assay type: in vitro ADME
T2 construct: host or cells: HEK293
T2 sequence (Q9Y6L6 1-691): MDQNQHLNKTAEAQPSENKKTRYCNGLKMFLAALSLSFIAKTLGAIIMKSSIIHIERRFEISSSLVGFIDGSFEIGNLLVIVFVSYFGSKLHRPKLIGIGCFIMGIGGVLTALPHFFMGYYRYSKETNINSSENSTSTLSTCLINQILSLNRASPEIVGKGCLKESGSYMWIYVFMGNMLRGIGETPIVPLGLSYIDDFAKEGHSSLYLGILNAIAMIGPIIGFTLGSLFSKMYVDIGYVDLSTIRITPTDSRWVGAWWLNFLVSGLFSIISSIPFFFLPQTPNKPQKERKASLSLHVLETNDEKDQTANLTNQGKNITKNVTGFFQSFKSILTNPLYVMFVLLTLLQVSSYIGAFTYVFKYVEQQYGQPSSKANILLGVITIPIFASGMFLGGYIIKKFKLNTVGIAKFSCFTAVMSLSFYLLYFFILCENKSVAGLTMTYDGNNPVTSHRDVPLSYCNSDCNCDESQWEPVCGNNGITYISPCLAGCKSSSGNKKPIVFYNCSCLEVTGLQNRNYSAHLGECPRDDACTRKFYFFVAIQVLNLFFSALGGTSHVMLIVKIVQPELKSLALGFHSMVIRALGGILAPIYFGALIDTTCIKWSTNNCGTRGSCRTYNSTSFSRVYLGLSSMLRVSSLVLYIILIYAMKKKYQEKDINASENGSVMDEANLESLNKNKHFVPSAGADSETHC
Description: as §1
(§2) The transporter-specific uptake of the probe substrate in cells was determined by subtracting the accumulation in the control cells from the accumulation in the transporter-expressing cells.

OAT1 = target: T3, OAT1 (Homo sapiens, UniProt Q4U2R8); assay: Transporter inhibition, uptake of [3H]-p-aminohippurate in HEK293 cells; assay type: in vitro ADME
T3 construct: host or cells: HEK293
T3 sequence (Q4U2R8 1-563): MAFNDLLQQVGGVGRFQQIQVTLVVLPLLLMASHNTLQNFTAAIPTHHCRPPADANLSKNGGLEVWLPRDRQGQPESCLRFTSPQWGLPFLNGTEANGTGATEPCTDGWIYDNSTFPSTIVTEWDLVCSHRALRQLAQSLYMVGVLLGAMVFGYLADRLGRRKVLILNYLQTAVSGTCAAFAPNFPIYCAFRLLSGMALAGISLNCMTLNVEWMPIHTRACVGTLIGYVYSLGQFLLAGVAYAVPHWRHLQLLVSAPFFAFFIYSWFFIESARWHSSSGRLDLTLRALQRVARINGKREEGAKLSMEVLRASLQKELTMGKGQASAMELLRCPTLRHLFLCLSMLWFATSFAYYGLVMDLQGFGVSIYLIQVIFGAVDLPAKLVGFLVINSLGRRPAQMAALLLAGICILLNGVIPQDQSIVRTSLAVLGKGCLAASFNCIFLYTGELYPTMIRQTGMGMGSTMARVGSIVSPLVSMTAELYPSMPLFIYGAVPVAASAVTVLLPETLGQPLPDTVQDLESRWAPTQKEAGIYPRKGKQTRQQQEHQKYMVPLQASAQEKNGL
Description: as §1, §2

CYP2C9 = CYP2C9 (Homo sapiens, UniProt P11712); assay: Direct CYP450 inhibition in human liver microsomes (diclofenac 4'-hydroxylation)
CYP2C9, sequence (P11712 whole entry): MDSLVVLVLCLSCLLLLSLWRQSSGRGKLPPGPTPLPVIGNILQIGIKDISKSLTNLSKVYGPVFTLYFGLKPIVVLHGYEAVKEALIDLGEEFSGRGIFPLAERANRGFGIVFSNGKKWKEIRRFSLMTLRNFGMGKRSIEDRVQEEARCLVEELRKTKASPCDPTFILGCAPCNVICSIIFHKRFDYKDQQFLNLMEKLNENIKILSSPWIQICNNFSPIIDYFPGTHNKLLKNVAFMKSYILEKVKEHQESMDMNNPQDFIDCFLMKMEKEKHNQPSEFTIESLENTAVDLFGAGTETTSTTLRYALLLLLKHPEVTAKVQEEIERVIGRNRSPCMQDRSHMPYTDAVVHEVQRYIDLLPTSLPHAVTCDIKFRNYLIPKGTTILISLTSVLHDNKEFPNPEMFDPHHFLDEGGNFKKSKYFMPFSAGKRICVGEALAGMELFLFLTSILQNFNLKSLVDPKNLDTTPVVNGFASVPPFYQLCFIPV
Description: A mixed‐gender pool of 200 individual human liver microsomal samples was used.
This LIMS utilizes the Levenberg-Marquardt algorithm to perform nonlinear regression fitting of the data to the following 4-parameter sigmoidal-logistic IC50 equation:
As percent of control values are utilized, the Min is set to 0 and the Max is set to 100 (or other values, as appropriate). […] Therefore, when an IC50 value falls outside the concentration range studied, the IC50 values are reported to be greater than the highest concentrations of test article evaluated.

[1] = all three hepatocyte cultures, FFA up to 40 μM, nFFA 50 μM

CCNC(C)Cc1cccc(C(F)(F)F)c1 (racemic) [FFA, (RS)‐ethyl(α‐methyl‐3‐trifluoromethylphenethyl)amine, reference compound]
% as effective as the positive control, omeprazole (CYP1A2 mRNA) (CYP1A2 mRNA; [1]): < 20%
pIC50 (BCRP): < 4.00
pIC50 (OATP1B1): < 3.52
pIC50 (OAT1): < 4.52
pIC50 (CYP2C9): < 4.22
Inhibition (%) (CYP2C9; direct inhibition, substrate diclofenac, FFA up to 60 µM, nFFA up to 100 µM): 2.4%
Basic model: Potential for clinical inhibition (CYP2C9; substrate diclofenac): No (Potential to inhibit if R1 ≥ 1.02)
Static mechanistic model: Potential for clinical inhibition (CYP2C9; substrate diclofenac): No (Potential to inhibit if AUCR ≥ 1.25)
Basic model: R1 (CYP2C9; substrate diclofenac, R1 = 1 + (Imax,u/Ki,u)): 1.01

CC(N)Cc1cccc(C(F)(F)F)c1.Cl (centres unmarked) [nFFA, [1‐(3‐trifluoromethyl)phenyl]propan‐2‐amine hydrochloride]
% as effective as the positive control, omeprazole (CYP1A2 mRNA) (CYP1A2 mRNA; [1]): < 20%
fold change in CYP1A2 mRNA levels (CYP1A2 mRNA; [1]): < 2 fold
Fold‐change method: Potential to induce (CYP1A2 mRNA; hepatocytes HC7‐8): No
Fold‐change method: Fold change (CYP1A2 mRNA; hepatocytes HC7‐8): 1.74 fold
Fold‐change method: % of control (CYP1A2 mRNA; hepatocytes HC7‐8): 2.35%
Fold‐change method: Potential to induce (CYP1A2 mRNA; hepatocytes HC10‐8): No
Fold‐change method: Fold change (CYP1A2 mRNA; hepatocytes HC10‐8): 1.92 fold
Fold‐change method: % of control (CYP1A2 mRNA; hepatocytes HC10‐8): 1.79%
Fold‐change method: Potential to induce (CYP1A2 mRNA; hepatocytes HC10‐10): No
Fold‐change method: Fold change (CYP1A2 mRNA; hepatocytes HC10‐10): 1.86 fold
Fold‐change method: % of control (CYP1A2 mRNA; hepatocytes HC10‐10): 1.96%
pIC50 (BCRP; MDCKII, probe prazosin 1 µM, read-out: IC50): < 4.30
pIC50 (OATP1B1; HEK293, probe [3H]-estradiol-17β-glucuronide 50 nM, read-out: IC50): < 4.30
pIC50 (OAT1; HEK293, probe [3H]-p-aminohippurate 1 μM, read-out: IC50): < 4.30
pIC50 (CYP2C9; direct inhibition, human liver microsomes, substrate diclofenac): < 4.00
Basic model: Potential for clinical inhibition (CYP2C9; substrate diclofenac): No (Potential to inhibit if R1 ≥ 1.02)
Static mechanistic model: Potential for clinical inhibition (CYP2C9; substrate diclofenac): No (Potential to inhibit if AUCR ≥ 1.25)
